“Also recorded” adds a separate entry of the source.
Experiments:
[1] = tested on: CSR:T1R1 chimeric homomer; assay: Fluo-4 calcium assay, cells transfected with CSR:T1R1; type: cell-based, human; settings: Calcium Chloride 2 mM, 745047-97-6 25 μM, MSG 2.5 mM + IMP 0.2 mM; for CSR:T1R1 AVG (mean ΔF/F): HEK293T/Gα16-gustducin 44 cells, six replicates
Method: (§1) Fluo-4 is a fluorescent indicator for intracellular calcium and allows for determination of changes in the intracellular calcium concentration, in particular an increase in response to receptor activation occurring after ligand addition.
(§2) HEK293 cells stably expressing Gα16-gustducin 44 were used as host cells and transfected with various constructs as described in example 4.
(§3) Black, clear-bottom 96-well plates were used for all assays. They were seeded the day before with 8500 transfected cells per well and maintained at 37° C. overnight in an a growth medium appropriate for the cells used. For HEK293 cells, Dulbecco's Modified Eagle medium containing high glucose, L-glutamine, pyroxidine hydrochloride, and supplemented with 10% fetal bovine serum was used for growth and maintenance of the HEK293 cells.
(§4) At the time of the assay, the growth medium was discarded and cells were incubated for 1 hour (at 37° C. in the dark) with 50 μl of a calcium assay solution consisting of 1.5 μM Fluo-4 AM (Molecular Probes™, Invitrogen, US) and 2.5 μM probenicid (Sigma-Aldrich) dissolved in a reduced calcium C1 buffer solution. Reduced calcium C1 buffer solution contains 130 mM NaCl, 5 mM KCl, 10 mM Hepes, 0.5 mM CaCl2 (reduced from 2 mM) and 10 mM glucose (pH 7.4).
(§5) After the initial 1 hour loading period, the plates were washed 5 times with 100 μl per well of reduced calcium C1 buffer using an automated plate washer (BioTek) and after washing, the plate was further incubated for 30 minutes at room temperature in the dark to allow for complete de-esterification of the Fluo-4-AM. The buffer solutions were discarded, the plate was washed 5 times with 100 μl reduced calcium C1 wash buffer and finally the cells were reconstituted in 180 μl of reduced calcium C1 wash buffer.
(§6) For assay reading, the plate was placed in a FLIPR (fluorescence imaging plate reader (FLIPR-Tetra, Molecular Devices)), and receptor activation was initiated following addition of 20 μl of a 10× concentrated ligand stock solution, which were prepared in reduced calcium C1 buffer.
(§7) Fluorescence was continuously monitored for 15 seconds prior to ligand addition and for 105 seconds after ligand addition (45-105 sec may be sufficient).
(§8) Receptor activation is determined by the increase in peak fluorescence (F) normalized to the baseline fluorescence (F0). The data are normalized using the following equation: ΔF/F=(F−F0)/F0, where F is the peak fluorescence signal and F0 is the baseline fluorescence signal, wherein the baseline fluorescence represents the mean fluorescence calculated for the first 10 to 15 seconds prior to ligand addition.
(§9) This value obtained corresponds to the calcium increase of the cell in response to a direct or indirect interaction with the transfected receptor (“signal”).
(§10) As a negative control, mock transfected cells were exposed to the same concentration of ligand and the concentration of calcium traces not corresponding to a signal was determined.
(§11) HEK293T cells that stably express Gα16-gustducin 44 (formed as described in WO 2004/055048) were transfected with the CSR::T1R1, CSR::T1R3 constructs, or with hCaSR as follows:
On day 0, the HEK293T/Gα16-gustducin 44 cells were plated in 96-well black, clear-bottom plates at a density of 8500 cells per well and grown overnight in selective growth media. […]

[2] = tested on: CSR:T1R1/CSR:T1R3 chimeric heterodimer; assay: Fluo-4 calcium assay, cells transfected with CSR:T1R1 and CSR:T1R3; type: cell-based, human; settings: for response (calcium signal) of CSR:T1R1/CSR:T1R3 chimeric heterodimer, in words / CSR:T1R1/CSR:T1R3 AVG (mean ΔF/F): Calcium Chloride 2 mM, 745047-97-6 25 μM; for CSR:T1R1/CSR:T1R3 AVG (mean ΔF/F): HEK293T/Gα16-gustducin 44 cells, six replicates, MSG 2.5 mM + IMP 0.2 mM; for signal in CSR:T1R1/CSR:T1R3 cells as magnitude of signals obtained in cells transfected with the hCaSR receptor: relative to hCaSR transfected cells
Method: as §1, §2, §3, §4, §5, §6, §7, §8, §9, §10, §11
On day 0, the HEK293T/Gα16-gustducin 44 cells were plated in 96-well black, clear-bottom plates at a density of 8500 cells per well and grown overnight in selective growth media. On day 1, the media was changed to an antibiotic-free and serum-free growth medium and the cells were transfected using 75 ng each of CSR:T1R1 and CSR:T1R3 (total 150 ng), T1R1 and T1R3 (total 150 ng), or 75 ng hCaSR vector construct DNA and 0.3 μl of Lipofectamine 2000 (Invitrogen).
For transfection of either the CSR:T1R1/CSR:T1R3 heterodimer, 75 ng of each vector construct was combined for a total of 150 ng per pair and used together with 0.3 μl of Lipofectamine 2000. 75 ng of hCaSR vector DNA was used for this calcium-sensing monomeric GPCR […]

[3] = target: T1, hCaSR (Homo sapiens, UniProt P41180, E1011Q); assay: Fluo-4 calcium assay, cells transfected with hCaSR; type: cell-based; settings: Calcium Chloride 2 mM, 745047-97-6 25 μM, MSG 2.5 mM + IMP 0.2 mM; for hCaSR AVG (mean ΔF/F): HEK293T/Gα16-gustducin 44 cells, six replicates
T1 construct: For hCaSR, a commercially available pCMV-based vector construct which is based on the full length cDNA was used; host or cells: HEK293T cells stably expressing Galpha16-gustducin 44, transiently transfected with 75 ng of vector
T1 sequence (P41180 20-1078 E1011Q): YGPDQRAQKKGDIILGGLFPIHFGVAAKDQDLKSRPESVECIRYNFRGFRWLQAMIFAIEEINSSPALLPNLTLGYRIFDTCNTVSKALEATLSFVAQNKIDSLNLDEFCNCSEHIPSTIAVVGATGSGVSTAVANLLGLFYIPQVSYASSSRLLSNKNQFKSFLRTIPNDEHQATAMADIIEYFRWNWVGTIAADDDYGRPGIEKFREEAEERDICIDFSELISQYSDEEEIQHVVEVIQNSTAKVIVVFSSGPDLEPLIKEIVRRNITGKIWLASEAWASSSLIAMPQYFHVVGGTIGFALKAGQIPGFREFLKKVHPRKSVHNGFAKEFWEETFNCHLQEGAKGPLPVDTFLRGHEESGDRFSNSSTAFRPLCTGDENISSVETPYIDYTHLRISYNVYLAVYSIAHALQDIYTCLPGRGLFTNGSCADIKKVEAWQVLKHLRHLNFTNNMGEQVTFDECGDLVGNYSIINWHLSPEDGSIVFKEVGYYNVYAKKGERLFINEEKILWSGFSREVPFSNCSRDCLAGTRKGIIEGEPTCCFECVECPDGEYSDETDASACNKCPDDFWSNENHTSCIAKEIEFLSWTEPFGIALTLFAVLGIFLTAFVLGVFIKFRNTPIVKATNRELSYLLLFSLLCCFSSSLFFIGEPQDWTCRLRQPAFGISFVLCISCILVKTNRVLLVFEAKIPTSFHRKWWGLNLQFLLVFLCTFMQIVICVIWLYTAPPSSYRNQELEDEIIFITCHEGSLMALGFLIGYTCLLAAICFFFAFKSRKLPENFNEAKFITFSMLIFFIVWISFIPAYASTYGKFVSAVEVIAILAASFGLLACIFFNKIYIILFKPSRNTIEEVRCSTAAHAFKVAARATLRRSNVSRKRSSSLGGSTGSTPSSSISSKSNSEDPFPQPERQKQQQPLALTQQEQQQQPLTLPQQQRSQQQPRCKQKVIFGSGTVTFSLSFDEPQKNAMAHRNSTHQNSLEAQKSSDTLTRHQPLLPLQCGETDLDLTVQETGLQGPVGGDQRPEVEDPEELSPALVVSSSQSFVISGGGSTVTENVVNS
Method: as §1, §2, §3, §4, §5, §6, §7
(§12) Receptor activation is determined by the increase in peak fluorescence (F) normalized to the baseline fluorescence (F0). The data are normalized using the following equation: ΔF/F=(F−F0)/F0, where F is the peak fluorescence signal and F0 is the baseline fluorescence signal, wherein the baseline fluorescence represents the mean fluorescence calculated for the first 10 to 15 seconds prior to ligand addition. […]
As a negative control, mock transfected cells were exposed to the same concentration of ligand and the concentration of calcium traces not corresponding to a signal was determined. […]

[4] = tested on: Mock transfected HEK293T/Gα16-gustducin 44 cells; assay: Fluo-4 calcium assay, mock transfection (negative control); type: cell-based; settings: Calcium Chloride 2 mM, 745047-97-6 25 μM; for Neg. control (mock transfection) AVG (mean ΔF/F): mock transfected cells, six replicates, MSG 2.5 mM + IMP 0.2 mM
Method: as §1, §2, §3
At the time of the assay, the growth medium was discarded and cells were incubated for 1 hour (at 37° C. in the dark) with 50 μl of a calcium assay solution consisting of 1.5 μM Fluo-4 AM (Molecular Probes™, Invitrogen, US) and 2.5 μM probenicid (Sigma-Aldrich) dissolved in a reduced calcium C1 buffer solution. […]
as §6, §7, §12, §10
The intracellular calcium response following stimulation with various ligands was determined in HEK293T cells stably expressing Gα16-gustducin 44 and transfected with CSR:T1R1 and/or CSR:T1R3 chimeric constructs. […]
The transfections were performed as described in example 4. Results were calculated as described in example 1 (data indicates the normalized increase in fluorescence over baseline after stimulation (ΔF/F); the mean (AVG) and the ±Standard deviation (STD) of six replicate experiments is given). […]
The calcium mobilization signals obtained are increase in peak fluorescence (F) normalized to the baseline fluorescence (F0). […]

## COc1cc(C)ccc1CNC(=O)C(=O)NCCc1ccccn1 [745047-97-6-oxalamide, N-(2-Methoxy-4-methyl-benzyl)-N′-(2-pyridin-2-yl-ethyl)-oxalamide]
[1]
  response (calcium signal) of CSR:T1R1 chimeric homomer, in words: significant increase of the signal; also recorded: activated
  CSR:T1R1 AVG (mean ΔF/F): 0.31
[2]
  response (calcium signal) of CSR:T1R1/CSR:T1R3 chimeric heterodimer, in words: significant increase of the signal; also recorded: significantly higher the background signals; also recorded: activated
  CSR:T1R1/CSR:T1R3 AVG (mean ΔF/F): 0.43
  signal in CSR:T1R1/CSR:T1R3 cells as magnitude of signals obtained in cells transfected with the hCaSR receptor: approximately 50%
[3]
  hCaSR AVG (mean ΔF/F): 0.04
[4]
  response in mock transfected negative control, in words: No response
  Neg. control (mock transfection) AVG (mean ΔF/F): 0.03

## [Ca+2].[Cl-].[Cl-] [Calcium, Calcium Chloride]
[1]; listed as calcium
  response (calcium signal) of CSR:T1R1 chimeric homomer, in words: react to calcium; also recorded: activated
[1]; listed as calcium chloride
  response (calcium signal) of CSR:T1R1 chimeric homomer, in words: significant increase of the signal
[1]
  CSR:T1R1 AVG (mean ΔF/F): 0.78
[2]; listed as calcium
  response (calcium signal) of CSR:T1R1/CSR:T1R3 chimeric heterodimer, in words: react to calcium; also recorded: activated
[2]; listed as calcium chloride
  response (calcium signal) of CSR:T1R1/CSR:T1R3 chimeric heterodimer, in words: significant increase of the signal; also recorded: significantly higher the background signals
[2]
  CSR:T1R1/CSR:T1R3 AVG (mean ΔF/F): 0.72
  signal in CSR:T1R1/CSR:T1R3 cells as magnitude of signals obtained in cells transfected with the hCaSR receptor: approximately 50%
[3]; listed as calcium
  response (calcium signal) of hCaSR, in words: react to calcium
[3]; listed as calcium chloride
  response (calcium signal) of hCaSR, in words: responded
[3]
  hCaSR AVG (mean ΔF/F): 1.44
[4]
  response in mock transfected negative control, in words: No response
  Neg. control (mock transfection) AVG (mean ΔF/F): 0.24

From patent publication US8039233B2, “Nucleic acid sequences and their use in methods to identify umami modulatiors” (Givaudan S.A., priority 2007, dated 2011)
